Patent US20230255943A1, “MMP-9 AND MMP-12 INHIBITION FOR TREATING SPINAL CORD INJURY OR RELATED INJURY TO NEUROLOGICAL TISSUE” (The University of Birmingham, priority 2020, published 2023)
Structures can show the parent of a compound that is named as a salt.

How the values were obtained:
[1] = test system: J774A.1, RAW 264.7 and primary mouse peritoneal macrophages; assay: Transwell migration assay of macrophages; type: cell-based; conditions: J774A.1 and RAW 264.7, 3 h
Method: J774A.1 cells (#TIB-67; ATCC, Middlesex, UK) were cultured in DMEM supplemented with 10% FBS, 100 U/ml penicillin, 100 μg/ml streptomycin, and 0.25 μg amphotericin B. Cells were seeded in T75 tissue-culture flasks and maintained at 37° C. and 5% CO2. RAW 264.7 cells (#TIB-71; ATCC) were maintained in DMEM containing 10% FBS.
Resident peritoneal cells were harvested from adult C57BL/6 mice (6-8 weeks old) by injection of 10 ml of PBS using a 21G needle into the peritoneal cavity and harvesting the cell suspension, as described previously (Rosas M, Davies L C, Giles P J, Liao C T, Kharfan B, Stone T C, et aL. The transcription factor Gata6 links tissue macrophage phenotype and proliferative renewal. Science 2014; 344(6184): 645-8). Peritoneal cells were then centrifuged at 100×g for 10 min and the cell pellet resuspended in DMEM/F12 medium. Cell were incubated at 37° C., for 2 h and non-adherent cells were removed by gentle washing. Cells were expanded in DMEM/F12 medium containing 10% FBS. For migration assays, cells were grown in RPMI containing 0.02% BSA for 24 h to obtain quiescent cells prior to using them in Transwell migration assays as described below.
Migration assays were performed with J774A.1, RAW 264.7 and primary mouse peritoneal macrophages in 6.5 mm Transwell plates (ThermoFisher) with 8 μm pore inserts, as described previously (Green et al., 2012). Briefly, inserts were coated with rat tail type I collagen and 1×10^5 cells (J774A.1, RAW 264.7 or primary mouse macrophages) were resuspended in chemotaxis buffer (RMPI 1640 plus 0.02% BSA, (termed RPMI from herein)) and added to the upper chamber and incubated with migration medium, with or without known chemotactic factors MCP-1 (100 ng/ml) and PMA (100 nM), or AZD1236, GM6001, SD2590 and MMP-9 Inhibitor I (all used at 1, 10, 100, 1000 ng/ml) added to the lower chamber. Cells were allowed to migrate through the insert membrane for 3 h at 37° C., before washing inserts with PBS. Non-migrating cells remaining on the upper surface were removed with a cotton swab whilst the migrated cells on the insert were fixed, stained with Diff-Quick (#26096, Electron Microscopy Science, Hatfield, UK), and mounted on glass slides. Migration was measured visually by counting using a light microscope at 40× magnification. The mean number of cells in 10 random fields were calculated for each treatment by an experimenter masked to the treatment conditions. A migration index was calculated by dividing the number of cells that migrated in response to the chemokine by the number of cells that migrated randomly (RPMI medium) with a reference index>1, indicating chemotaxis.

[2] = test system: LPS-stimulated primary microglia; assay: LPS-induced cytokine production by primary microglia (ELISA); type: cell-based, mouse; conditions: LPS 10 ng/ml, 24 h
Method: Primary mouse microglia from 6-8-week-old C57BL/6 mouse brains were prepared according to a previously described protocol (Moussaud S, Draheim H J. A new method to isolate microglia from adult mice and culture them for an extended period of time. J Neurosci Methods 2010; 187(2): 243-53). Briefly, the meninges of brains were dissected out, finely minced enzymatically digested using 20 units/ml Papain (all from Sigma). After incubation for 90 min at 37° C., the suspension was centrifuged at 200 g for 7 min and the pellet resuspended in 0.5 mg/ml DNase I (Roche, Manheim, Germany) and triturated with fire-polished Pasteur pipettes of decreasing diameters. The homogenate was then filtered through a 70 μm cell strainer (Beckton Dickinson, Watford, UK), and centrifuged through a Percoll (GE Healthcare, Amersham, UK) gradient. Finally, the cell suspension was resuspended in DMEM/F12 medium supplemented with 10% FBS (all from Invitrogen) and 5 ng/ml of granulocyte colony and macrophage stimulating factor (GM-CSF) (#415-ML, R&D Systems. Watford, UK), plated out in T75 cell culture flasks (Beckton Dickinson) precoated with poly-L-lysine, and maintained at 37° C. and 5% CO2 for approximately 2 weeks. When the cells become confluent, microglia detach and migrate to the medium-air interface, floating and proliferating. The supernatant of the flask was then collected without prior shaking to remove the microglia growing on a mixed glial culture base and centrifuged at 200 g for 7 min. The purity of microglia was determined from each flask by immunocytochemistry for CD11b and confirmed as 95% pure. Before each experiment, microglia were cultured in DMEM/F12 without GM-CSF for at least 3 d.
Microglia were used for all experiments with an in vitro age between 15-20 d in vitro (DIV) and were seeded on glass coverslips in 24-well plates at a density of 3×10^4 cells/well. Microglia were exposed to serum-free media for 24 h before exposing the cells to different concentrations of lipopolyscaccharide (LPS) in preliminary experiments to determine optimal concentrations required to maximally activate our primary microglial cultures. This was determined as 10 ng/ml. For the microglial activation assay, cells were exposed to serum-free medium for 24 h before being exposed to LPS, with or without different concentrations of AZD1236, GM6001, SD2590 and MMP-9 Inhibitor I (all used at 10-500 ng/ml) for a further 24 h. Cell culture supernatant was then collected, centrifuged to remove cell debris and subjected to ELISA to determine the concentrations of TNF-α, IL-1β and IL-6. Experiments were performed in triplicate wells and repeated on 3 independent occasions (n=9 wells/treatment).
TNF-α (#MTA00B), IL-1β (#MLBOOC) and IL-6 (#M6000B) were determined using commercially available kits from R&D Systems, following the manufacturer's instructions.

[3] = test system: mice with DC crush injury; type: in vivo, mouse; conditions: for number of CTB+ DC axons regenerating, comparison with other MMP inhibitors (FIG. 11): mouse, in vivo

| SMILES | macrophage migration (migration index, chemotaxis) [1] | TNF-α, IL-1β and IL-6 production by LPS-activated microglia ([2]; 10-500 ng/ml) | number of CTB+ DC axons regenerating, comparison with other MMP inhibitors (FIG. 11) [3] | TNF-α, IL-1β and IL-6 production by LPS-activated microglia ([2]; 100 ng/ml) | TNF-α, IL-1β and IL-6 production by LPS-activated microglia ([2]; 500 ng/ml) | CTB+ fibres regenerating through the lesion site, 24 h delayed treatment ([3]; 24 h delay vs immediate) | extension of CTB labelled axons from the lesion centre ([3]; oral) | CTB+ labeling intensity (percentage of CTB labelled axons) ([3]; oral, vs DC+Vehicle) |
| --- | --- | --- | --- | --- | --- | --- | --- | --- |
| CCN(CC)Cc1cc(C)c(N(Cc2ccccc2)S(=O)(=O)c2ccc(OC)cc2)c(C(=O)NO)c1 [MMP-9 Inhibitor I, reference compound] | not affected | marginal effects | only a marginal effect on axon regeneration |  |  |  |  |  |
| COCCN1CCC(C(=O)NO)(S(=O)(=O)c2ccc(Oc3ccc(OC(F)(F)F)cc3)cc2)CC1 [SD2590, N-Hydroxy-1-(2-methoxyethyl)-4-[4-[4-(trifluoromethoxy)phenoxy]phenyl]sulfonyl]-4-piperidinecarboxamide hydrochloride, reference compound] | not affected | marginal effects | only a marginal effect on axon regeneration |  |  |  |  |  |
| C[C@]1(CS(=O)(=O)N2CC=C(C#Cc3cnc(C4CC4)nc3)CC2)NC(=O)NC1=O [AZD1236] | no effect on chemotaxis | dose-dependent decrease | far superior at promoting DC axon regeneration | returning their concentrations to DMEM/F12-medium control levels | completely suppressed the production of these cytokines | promoted the same amount | at least 1000 μm | significantly enhanced percentage of CTB labelled axons |
| CNC(=O)[C@H](Cc1c[nH]c2ccccc12)NC(=O)[C@@H](CC(=O)NO)CC(C)C [GM6001, (2R)—N^4-Hydroxy-N^1-[(1S)-1-(1H-indol-3-ylmethyl)-2-(methylamino)-2-oxoethyl]-2-(2-methylpropyl)butanediamide, reference compound] | not affected | marginal effects | only a marginal effect on axon regeneration |  |  |  |  |  |
